From publication PMC9650263, “Synthesis and appraisal of dalbergin-loaded PLGA nanoparticles modified with galactose against hepatocellular carcinoma: In-vitro, pharmacokinetic, and in-silico studies” (Frontiers in Pharmacology, 2022) come the findings set out here.

Converted amounts (≈) assume the structure as drawn.

One data set has as its system HepG2 cell line. Put plainly: SRB growth inhibition assay, anticancer efficacy. The data set is classed as cell-based. The following applies: Homo sapiens, HepG2, 48 h, 10-80 μg/ml, read-out: GI50 (growth inhibitory concentration). As to the method:
National Cell Repository of NCCS (Pune, India) provided the HepG2 cell line, which was then grown in our cell culture lab for further in vitro assays. The liver cancer cell lines were grown in a T-75 flask for 24 h at 37°C, 5% CO2, and absolute humidity equal to 100% in the Roswell Park Memorial Institute (RPMI)-1640 media with 10% fetal bovine serum and 2 mM L-glutamine. The cells were collected by centrifugation and incubated at a density of 5×10^3 cells/well onto 96 well plates to measure the growth. The test samples were distributed in dimethyl sulfoxide at 100 mg/ml concentration, diluted to 1 mg/ml equivalent drug concentration in distilled H2O. […] After removing the attached dye with 10 mM Trizma base, absorbance was measured at 540 nm using a 690 nm reference. The findings were acquired in triplicate on different plates, and the mean of the three trials was determined. The % cell growth was measured using absorbance data (time zero [Tz], control growth (C), and test growth in the presence of drug at different concentrations [Ti]. The % growth inhibition was calculated using the following formula Ti−Tz/C−Tz×100 for concentrations for which Ti≥Tz […]
It was shown that the quantity of protein formation was reduced by 50% at a medication concentration of […]. […]

A short description of data set [1]: Oral pharmacokinetic study, HPLC quantification in plasma. As to conditions: rat plasma, DL equivalent 100 mg/kg. The data set is classed as in vivo, albino Wistar rats. How it is done: DL, DLF, and DLMF were administered orally to albino Wistar rats at a dose of DL equivalent to 100 mg/kg (Approval No: IU/IAEC/20/01), and after the first treatment, the blood samples were collected through retro-orbital plexus of the animals at 0.083, 0.25, 0.5, 1, 2, 4, 8, 12, 16, 24, and 48 h. The serum was isolated from the blood by centrifugation for 10 min at 10,000 rpm. The serum samples were kept at -20 °C until quantification by HPLC analysis.
A precise and accurate bioanalytical approach was devised for drug quantification in plasma samples. ACN was used to make 1 mg/ml stock solution of DL, and stock solution in ACN was used to make working standard solutions of 0.02, 0.1, 0.2, 0.5, 1, 2, 5, 10, 50, and 100 μg/ml. Overall, separate tubes containing 100 […] and 100 […] were vortexed for 30 min. The tubes were then spun at 13,000 rpm for 5 min. The supernatant was collected, transferred to fresh tubes, and allowed to dry overnight at a temperature of 40°C. After that, the tubes were reconstituted with 100 μL of ACN, vortexed for 5 minutes, and 20 μL of supernatant was injected into HPLC to quantify DL. The working solution concentrations were 0.01, 0.05, 0.1, 0.25, 0.5, 1, 2.5, 5.0, 25.0, and 50.0 μg/ml. Low-quality control (LQC), medium quality control (MQC), and high-quality control (HQC) samples were created with different quantities of 0.005, 0.5, and 40 μg/ml, respectively. It was necessary to create quality control samples and triplicate calibrations for each concentration. A test tube containing 100 μL of test plasma and 100 μL of ACN was vortexed for 30 min to create the test samples. To assess the final outcomes, WinNonlin version 1.5.3 was used ([Nisha et al., 2020a]; [Kumar, P., et al., 2018]; [Nisha et al., 2020b]).

Data set [2] can be described thus: In vitro drug release study. The data set is classed as physicochemical. As to conditions: up to 48 h, 37°C; media pH 1.2 and 7.4 described, medium of the values not stated. As to the method: At pH values of 1.2 and 7.4, the drug release perspectives of DLF and DLMF were studied in both simulated gastric and simulated intestinal fluids. A flask was placed in an incubator with a water bath continually swirling (100 rev/min) and kept at a temperature of 37°C. The flask was filled with 10 ml of the appropriate medium and weighed amounts of DLF and DLMF that were sufficient for 10 mg of DL. The dissolving solution in the flask was then routinely replaced with new media at regular intervals, after which 2 ml of the sample was collected for DL detection. The samples were analyzed at 254 nm using a UV-Vis Spectrometer (Labtronics-2910, India), which was utilized to quantify the DL release. Triplicate dissolution tests were carried out. The data was analyzed to determine release kinetics ([Song, X., et al., 2018]; [Kanoujia, J., et al., 2021]; [Song, X., et al., 2019]; [Kumar, P., et al., 2018]).

As a reminder, the AUC(0-inf) is the area under the concentration-time curve extrapolated to infinity. Usually Cmax stands for the peak of the concentration-time curve. Broadly, the MRT is the average time that molecules of a dose stay in the body. As a reminder, the Tmax is the time from dosing to the highest level. One may read the half-life as the time in which the quantity being followed falls by half. As for `COc1cc2oc(=O)cc(-c3ccccc3)c2cc1O` [DL, 6-hydroxy-7-methoxy-4-phenyl-2H-cromen-2-one], the GI50 with HepG2 cell line amounted to 20 µg/mL (≈ 74.6 µM). Moreover, in data set [1] (albino Wistar), the AUC(0-inf) amounted to 244 ± 10.3 µg·h/mL, the Cmax came to 23100 ± 840 ng/mL, the MRT was 11.5 ± 1.01 h and the Tmax was determined as 4 h. The half-life in data set [1] (albino Wistar) was 9.63 h. For the same compound, the AUMC in data set [1] turned out to be 2806.95 µg.h^2/ml. The “cumulative discharge (in vitro release)” value in data set [2] is reported as “around 40.97 ± 3.01%”.
